Experimental data as given in the NIST ThermoML archive (doi:10.1021/je800981d).
Where “and” joins values, the source holds several entries; their conditions need not be identical. Identical values can stand only once.

Tests used:
[1] = refractive index (Na D-line) (dimensionless); conditions: 101.33 kPa, Liquid, Standard Abbe refractometry
[2] = Liquid
[3] = xn = mol fraction of the nth substance listed; conditions: 101 kPa, Liquid
[4] = refractive index (Na D-line) (dimensionless); xn = mol fraction of the nth substance listed; conditions: 298.15 K, 101 kPa, Liquid, Standard Abbe refractometry

CCOS(=O)(=O)[O-].CC[n+]1ccccc1 [1-ethylpyridinium ethyl sulfate]
[1]
Conditions	refractive index
298.15 K	1.50525 and 1.50252
303.15 K	1.50394
308.15 K	1.50258
313.15 K	1.5012
318.15 K	1.49976
323.15 K	1.4985
328.15 K	1.4972
333.15 K	1.49587
338.15 K	1.49454
343.15 K	1.49309

[2]
Conditions	mass density, 101.33 kPa [kg/m3]	speed of sound, 101.33 kPa [m/s]	viscosity, 101 kPa [mPa·s]	viscosity, 101.33 kPa [mPa·s]
298.15 K	1252	1711	–	126.3
303.15 K	1248.7	1699	–	93
308.15 K	1245.4	1687	–	72.1
313.15 K	1242.1	1676	–	57.6
318.15 K	1238.8	1664	–	46.4
323.15 K	1235.6	1653	–	38.6
328.15 K	1232.3	1641	38.6	32.53
333.15 K	1229.1	1630	–	27.78
338.15 K	1225.9	1619	–	23.9
343.15 K	1222.7	1608	–	20.71

CCOS(=O)(=O)[O-].CC[n+]1ccccc1 [1-ethylpyridinium ethyl sulfate] + CCCO
[3]
Conditions	mass density, 298.15 K [kg/m3]	mass density, 313.15 K [kg/m3]	mass density, 328.15 K [kg/m3]	speed of sound, 298.15 K [m/s]	speed of sound, 313.15 K [m/s]	speed of sound, 328.15 K [m/s]	viscosity, 298.15 K [mPa·s]	viscosity, 313.15 K [mPa·s]	viscosity, 328.15 K [mPa·s]
x2 = 0	1252	1242.1	1232.3	1711	1676	1641	126.3	57.6	38.6
x2 = 0.0814	1237.2	1227.4	1217.6	1689	1654	1619	95.2	48	32.49
x2 = 0.1994	1212.7	1202.7	1192.7	1649	1613	1578	62.7	34.23	23.31
x2 = 0.3084	1186.1	1176.1	1165.9	1608	1572	1537	43.6	25.21	17.27
x2 = 0.4035	1159	1148.5	1138.3	1565	1528	1493	30.03	18.31	12.21
x2 = 0.5077	1123.8	1113	1102.6	1516	1478	1440	20.12	12.91	8.898
x2 = 0.6013	1085.8	1074.8	1064.2	1466	1427	1388	13.68	9.161	6.523
x2 = 0.7016	1036.7	1025.2	1014.3	1409	1367	1327	8.84	6.131	4.494
x2 = 0.8004	976.9	965.3	954.1	1347	1304	1262	5.597	3.988	2.977
x2 = 0.9002	900.6	888.9	877.1	1279	1234	1189	3.483	2.507	1.874
x2 = 0.9521	852.4	840.3	828.1	1244	1195	1147	2.676	1.921	1.411

[4]
Conditions	refractive index
x2 = 0	1.50525
x2 = 0.0814	1.50137
x2 = 0.1994	1.49499
x2 = 0.3084	1.48804
x2 = 0.4035	1.48081
x2 = 0.5077	1.47142
x2 = 0.6013	1.46126
x2 = 0.7016	1.44802
x2 = 0.8004	1.43181
x2 = 0.9002	1.411
x2 = 0.9521	1.39773

CCOS(=O)(=O)[O-].CC[n+]1ccccc1 [1-ethylpyridinium ethyl sulfate] + CCO
[3]
Conditions	mass density, 298.15 K [kg/m3]	mass density, 313.15 K [kg/m3]	mass density, 328.15 K [kg/m3]	speed of sound, 298.15 K [m/s]	speed of sound, 313.15 K [m/s]	speed of sound, 328.15 K [m/s]	viscosity, 298.15 K [mPa·s]	viscosity, 313.15 K [mPa·s]	viscosity, 328.15 K [mPa·s]
x2 = 0	1252	1242.1	1232.3	1711	1676	1641	126.3	57.6	38.6
x2 = 0.0476	1245.3	1235.3	1225.3	1700	1665	1631	103.3	50.3	34.14
x2 = 0.1993	1220.8	1210.8	1200.7	1661	1625	1591	58.4	33.9	22.38
x2 = 0.2992	1201.2	1190.9	1180.7	1630	1593	1558	40.3	23.51	15.2
x2 = 0.5009	1147.2	1136.4	1125.9	1546	1508	1472	17.27	11.39	8.015
x2 = 0.6033	1109.2	1098.4	1087.7	1491	1453	1388	10.79	7.07	5.198
x2 = 0.7023	1062	1051	1039.9	1428	1388	1350	6.63	4.8	3.642
x2 = 0.8016	999.9	988.1	976.6	1349	1308	1267	3.947	2.943	2.287
x2 = 0.899	915.5	903.3	890.1	1258	1214	1170	2.244	1.717	1.344
x2 = 0.9476	860.1	847.5	834.1	1206	1160	1113	1.641	1.261	0.987

[4]
Conditions	refractive index
x2 = 0	1.50252
x2 = 0.0476	1.50313
x2 = 0.1993	1.49585
x2 = 0.2992	1.48987
x2 = 0.5009	1.47321
x2 = 0.6033	1.46152
x2 = 0.7023	1.44693
x2 = 0.8016	1.42734
x2 = 0.899	1.40078
x2 = 0.9476	1.38342

CCO [ethanol]
Conditions	refractive index
[1], 298.15 K	1.36023

[2], 101 kPa
Conditions	mass density [kg/m3]	speed of sound [m/s]	viscosity [mPa·s]
298.15 K	785.5	1146	1.082
313.15 K	772	1093	0.827
328.15 K	758.6	1043	0.641

CCO [ethanol] + CCOS(=O)(=O)[O-].CC[n+]1ccccc1
[3], x1 = 1
Conditions	mass density [kg/m3]	speed of sound [m/s]	viscosity [mPa·s]
298.15 K	785.5	1146	1.082
313.15 K	772	1093	0.827
328.15 K	758.6	1043	0.641

Conditions	refractive index
[4], x1 = 1	1.36023

CCCO [propan-1-ol]
Conditions	refractive index
[1], 298.15 K	1.3831

[2], 101 kPa
Conditions	mass density [kg/m3]	speed of sound [m/s]	viscosity [mPa·s]
298.15 K	799.6	1207	2.017
313.15 K	787.4	1155	1.43
328.15 K	774.8	1105	1.041

CCCO [propan-1-ol] + CCOS(=O)(=O)[O-].CC[n+]1ccccc1
[3], x1 = 1
Conditions	mass density [kg/m3]	speed of sound [m/s]	viscosity [mPa·s]
298.15 K	799.6	1207	2.017
313.15 K	787.4	1155	1.43
328.15 K	774.8	1105	1.041

Conditions	refractive index
[4], x1 = 1	1.3831
